The subject of data set [1] is SARS-CoV-2. In words: Antiviral efficacy against SARS-CoV-2 (strain BavPat1) in Vero E6 cells assessed by inhibition of viral RNA replication measured by RT-PCR after 2 days. Format: functional, organism-based, Chlorocebus sabaeus. Conditions: Severe acute respiratory syndrome coronavirus 2, Vero C1008, 48 h.
Data set [2] in a line: Selectivity index for antiviral vs cytotoxic effect in Vero E6 cells (CC50/EC50). Format: toxicity, cell-based, Vero C1008. Conditions: monkey, read-out: Selectivity index.
A short description of data set [3]: Cytotoxicity (CC50) determination in Vero E6 cells measured by fluorescence (OD590nm). Format: toxicity, cell-based. Conditions: chlorocebus sabaeus, Vero E6 cells (Vero C1008).
In data set [4] the test system is SARS-CoV-2. In words: Inhibition of cell viability relative to arbidol control (inhibition index > 1 indicates higher activity) measured by fluorescence (OD590nm) in Vero E6 cells infected with SARS-CoV-2 (strain BavPat1) at MOI 0.002 after 72hrs. The format is functional. The note with it: Chlorocebus sabaeus; Vero C1008.

Where a name gives a salt, the structure may show the parent alone.

As usually defined, the EC50 is the concentration at which the effect is half-maximal. As a reminder, the EC90 is the concentration at which the effect reaches the 90% level. Lower therefore signals greater potency. As a reminder, the CC50 is the concentration that lowers cell viability or growth by half. Higher therefore signals lower toxicity to the cells. In data set [1], `Clc1ccc(Cn2c(CN3CCCC3)nc3ccccc32)cc1` came in with an EC50 of 23.9 µM and an EC90 of 38.2 µM. Also, the selectivity ratio in data set [2] is over 1.7. The molecule also displayed a CC50 in data set [3] of over 40 µM.

For `CC(C)CN(C[C@@H](O)[C@H](Cc1ccccc1)NC(=O)O[C@H]1CO[C@H]2OCC[C@H]21)S(=O)(=O)c1ccc(N)cc1`, the 50% effective concentration (EC50) in data set [1] was over 40 µM.

In data set [1], `C=C[C@H]1CN2CC[C@H]1C[C@@H]2[C@@H](O)c1ccnc2ccc(OC)cc12` came in with an EC50 of 5.11 µM and an EC90 of over 40 µM. In data set [2], the selectivity ratio was over 7.8. In data set [3], this molecule yielded a CC50 of over 40 µM.

Consider `COC(c1ccccc1)(c1ccccc1)C(Oc1nc(C)cc(C)n1)C(=O)O` (configuration not stated), for which the EC50 in data set [1] was over 40 µM.

In data set [1], `CCCCC[C@H](O)/C=C/[C@H]1[C@H](O)CC(=O)[C@@H]1CCCCCCC(=O)O` [ALPROSTADIL] showed an EC50 of 5.39 µM and an EC90 of 62.4 µM. In addition, the selectivity ratio in data set [2] was over 7.4. Also, in data set [3], the CC50 is over 40 µM.

Consider `CC[C@H]1OC(=O)[C@H](C)[C@@H](O[C@H]2C[C@@](C)(OC)[C@@H](O)[C@H](C)O2)[C@H](C)[C@@H](O[C@@H]2O[C@H](C)C[C@H](N(C)C)[C@H]2O)[C@](C)(O)C[C@@H](C)CN(C)[C@H](C)[C@@H](O)[C@]1(C)O` [AZITHROMYCIN], for which a half-maximal response in data set [1] (EC50) required 2.12 µM. Also, the selectivity ratio in data set [2] was over 19. This molecule gave a CC50 in data set [3] of over 40 µM.

As for `C[C@@H]1CCO[C@H]2Cn3cc(C(=O)NCc4ccc(F)cc4F)c(=O)c(O)c3C(=O)N12` [DOLUTEGRAVIR], in data set [1], the midpoint of the response, the EC50, lay at 22 µM and the concentration for an effect of 90% (EC90) amounted to 42.8 µM. Besides, the selectivity ratio in data set [2] was over 1.8. Besides, the CC50 in data set [3] was over 40 µM.

On to `CCN(CCO)CCCC(C)Nc1ccnc2cc(Cl)ccc12` (configuration not stated) [HYDROXYCHLOROQUINE SULFATE], for which the EC50 in data set [1] amounted to 4.17 µM. Further, in data set [2], the selectivity ratio is over 10. This molecule showed a CC50 in data set [3] of over 40 µM.

`CC(C)(C)NC[C@H](O)c1ccc(O)c(CO)c1` [LEVALBUTEROL HYDROCHLORIDE]: in data set [1], the EC50 is over 40 µM.

In data set [1], `CCCc1nc(C(C)(C)O)c(C(=O)OCc2oc(=O)oc2C)n1Cc1ccc(-c2ccccc2-c2nnn[nH]2)cc1` [OLMESARTAN MEDOXOMIL] came in with an EC50 of over 40 µM.

In data set [1], `COc1ccc2[nH]c([S+]([O-])Cc3ncc(C)c(OC)c3C)nc2c1` (configuration not stated) [OMEPRAZOLE] had an EC50 of 17.1 µM. In addition, the CC50 in data set [3] is over 40 µM.

For `OCCN1CCN(CCCN2c3ccccc3C=Cc3ccccc32)CC1` [OPIPRAMOL HYDROCHLORIDE], the EC50 in data set [1] is 5.05 µM. In data set [2], the selectivity ratio was over 7.9. The molecule further yielded a CC50 in data set [3] of over 40 µM.

As to `C=CCOc1ccccc1OCC(O)CNC(C)C` (configuration not stated) [OXPRENOLOL HYDROCHLORIDE], in data set [1], the 50% effective concentration (EC50) was 20.2 µM and the EC90 was over 40 µM. For the same molecule, the selectivity ratio in data set [2] is over 2. This molecule returned a CC50 in data set [3] of over 40 µM.

Regarding `COc1ccccc1OCC(O)CN1CCN(CC(=O)Nc2c(C)cccc2C)CC1` (configuration not stated) [RANOLAZINE], the EC50 in data set [1] was over 40 µM.

As for `COc1ncnc(NS(=O)(=O)c2ccc(N)cc2)c1OC` [SULFADOXINE], in data set [1], it took 35.4 µM to reach a half-maximal effect (EC50) and it took 45.1 µM to reach the 90% level (EC90). Further, in data set [2], the selectivity ratio was over 1.13. In data set [3], this molecule had a CC50 of over 40 µM.

As for `CCOC(=O)c1c(CSc2ccccc2)n(C)c2cc(Br)c(O)c(CN(C)C)c12` [UMIFENOVIR], the EC50 in data set [1] came to 10.7 µM. Besides, the selectivity ratio in data set [2] was over 3.7. For the same molecule, the CC50 in data set [3] is over 40 µM.

Take CYANOCOBALAMIN: the Inhibition index in data set [4] turned out to be 0.0637.

In data set [4], Gramicidin registered an Inhibition index of -0.249.

In the case of NEOMYCIN SULFATE, the Inhibition index in data set [4] was determined as 0.0953.

In turn, Tyloxapol gave an Inhibition index in data set [4] of 0.101.

Values taken from ChEMBL document CHEMBL4303097 (2020).
